# What was measured:
# HCEC monolayers = assay: Transport across the in vitro blood brain barrier model; type: cell-based, human; conditions: for effect on FC5 transport across the in vitro BBB model: 30 minutes preincubation
# Method: HCEC (80,000 cells/membrane) were seeded on a 0.5% gelatin coated Falcon tissue culture inserts (pore size-1 μm; surface area 0.83 cm^2) in 1 ml of growth medium. The bottom chamber of the insert assembly contained 2 ml of growth medium supplemented with the fetal human astrocyte-conditioned medium in a 1:1 (v/v) ratio (Muruganandam et al., 1997).
# Transport studies were performed 7 days post-seeding as described previously (Muruganandam et al., 1997; Muruganandam et al., 2002). Filter inserts were rinsed with transport buffer [phosphate buffered saline (PBS) containing 5 mM glucose, 5 mM MgCl2, 10 mM HEPES, 0.05% bovine serum albumin (BSA), pH 7.4] and allowed to equilibrate at 37° C. for 30 minutes. Experiments were initiated by adding 10 μg/ml FC5 to either apical or basolateral side of inserts containing either 0.5% gelatin-coated inserts without cells, control HCEC or HCEC pre-exposed to various pharmacological modulators for 30 min. Transport studies were conducted at 37° C. with plates positioned on a rotating platform stirring at 30-40 rpm. Aliquots (100 μl) were collected from the opposite chamber at various time intervals (5, 15, 30, 60, 90 minutes) and replaced with fresh buffer. The amount of FC5 transported across empty inserts or HCEC monolayers was determined by enzyme linked immunosorbent assay (ELISA) (see below). To control for HCEC membrane integrity and to estimate paracellular diffusion, the apical-to-basolateral and basolateral-to-apical clearance rates of [^14C]-sucrose were determined and calculated essentially as described previously (Muruganandam et al., 2002; Garberg et al., 2005) across the same monolayers used for FC5 transport studies. Sample-associated radioactivity in 50 μl aliquots was measured using a Mircobeta Trilux liquid scintillation counter (Wallac, Finland).
# Clearance was calculated as Cl (ml)=CA/CI×VA, where CI is the initial tracer or sdAb concentration in the donor chamber, CA is the tracer or sdAb concentration in the accepter chamber, and VA is the volume of the acceptor chamber. […] The effects of pharmacological agents on FC5 transmigration was subsequently assessed at 30 min.
# To measure the amount of FC5 transmigrated across the in vitro BBB model, 50 μl aliquots collected from the appropriate compartment were immobilized overnight at room temperature in a HisGrab nickel coated 96-well plate (Pierce). After blocking the plates with 2% BSA for 2 hours at room temperature, anti-c-Myc monoclonal antibody conjugated to HRP was added at a dilution of 1:5000 for 1 hour. After washing, the bound FC5 was detected with tetramethylbenzidine (TMB)/hydrogen peroxide substrate system. The signal was measured at […] on a microtiter plate reader. FC5 concentrations in collected aliquots were determined from a standard curve constructed using known FC5 concentrations.
# HCEC = assay: Uptake into human cerebromicrovascular endothelial cells (immunofluorescence); type: cell-based; conditions: data not shown; for effect on FC5 uptake into HCEC: 30 minutes preincubation
# Method: The uptake of FC5 into HCEC was tested 15-90 minutes after adding 5 μg/ml of FC5 in the absence or presence of various pharmacological modulators of endocytosis. To visualize the intracellular distribution of FC5, cells were fixed, permeabilized and probed with the anti-c-myc antibody (1:100; 1 hour) followed by incubation with FITC-labeled anti-mouse IgG (1:250; 1 hour).
# [1] = 5 μg/ml, 30 minutes pretreatment
compound,measurement,setting,value
O=CC[C@@H](O)[C@H](O)[C@H](O)CO [2-deoxyglucose],effect on FC5 transmigration,"HCEC monolayers; 5 mM sodium azide and 5 mM 2-deoxyglucose together, 30 min, glucose-free medium",near-complete inhibition
"CN(C)CCCn1cc(C2=C(c3c[nH]c4ccccc34)C(=O)NC2=O)c2ccccc21 [BIM-1, bisindolyl-maleimide-1]",reduction of FC5 transcytosis across HCEC,"HCEC monolayers; BIM-1 5 μM, 30 minutes pre-incubation",25%
"CC[C@@]1([C@@H]2O[C@@H]([C@H]3O[C@@](O)(CO)[C@H](C)C[C@@H]3C)C[C@@H]2C)CC[C@H]([C@]2(C)CC[C@]3(C[C@H](O)[C@@H](C)[C@@H]([C@@H](C)[C@@H](OC)[C@H](C)C(=O)O)O3)O2)O1 [Monensin, monensin]",inhibition at 25 µM,"HCEC monolayers; Homo sapiens, HCEC, 0.5 h, monensin 25 μM, 30 minutes, 10 μg/ml FC5, read-out: inhibition of FC5 transcytosis across HCEC",34%
N=C(N)NC(=O)c1nc(Cl)c(N)nc1N [amiloride],effect on transendothelial migration of FC5,HCEC monolayers; amiloride 500 μM,no effect
CN(C)CCCN1c2ccccc2Sc2ccc(Cl)cc21 [chlorpromazine],inhibition at 50 µg/mL,"HCEC monolayers; Homo sapiens, HCEC, chlorpromazine 50 μg/ml, 30 minutes pretreatment, read-out: inhibition of FC5 transmigration across in vitro BBB model",52%
"CCCC(=O)Nc1ncnc2c1ncn2[C@@H]1O[C@@H]2COP(=O)(O)O[C@H]2[C@H]1OC(=O)CCC [db-cAMP, dibutyryl-cAMP]",effect on FC5 transcytosis across HCEC,"HCEC monolayers; db-cAMP 500 μM, 30 minutes pre-incubation",not affected
CCCCC[C@@H](O)[C@H]1C(=O)O[C@H](C)[C@@H](O)/C=C/C=C/C=C/C=C/C=C(\C)[C@@H](O)C[C@H](O)C[C@H](O)C[C@H](O)C[C@H](O)C[C@H](O)C[C@@H]1O [filipin],effect on FC5 transmigration across in vitro BBB model,HCEC monolayers; [1],None of the caveolae-mediated endocytosis inhibitors tested affected
O=c1c(-c2ccc(O)cc2)coc2cc(O)cc(O)c12 [genistein],effect on FC5 transcytosis across HCEC,"HCEC monolayers; genistein 50 μM, 30 minutes pre-incubation",not affected
COC(=O)Nc1nc2ccc(C(=O)c3cccs3)cc2[nH]1 [nocodazole],effect on FC5 transcytosis,"HCEC monolayers; 20 μM, 30 minutes pre-incubation",did not interfere
C[C@@H]1[C@H](O)[C@@H](C)/C=C/C=C/CC/C=C/C=C/C=C/C=C/C(O[C@H]2O[C@H](C)[C@@H](O)[C@H](N)[C@@H]2O)CC2O[C@](O)(CC(O)C(O)CCC(O)CC(O)CC(O)CC(=O)O[C@H]1C)CC(O)C2C(=O)O (stereo partly shown) [nystatin],effect on FC5 transmigration across in vitro BBB model,HCEC monolayers; [1],None of the caveolae-mediated endocytosis inhibitors tested affected
C[C@@H]1O[C@@H](O[C@H]2C[C@@H](O)[C@]3(CO)[C@H]4[C@H](O)C[C@]5(C)[C@@H](C6=CC(=O)OC6)CC[C@]5(O)[C@@H]4CC[C@]3(O)C2)[C@H](O)[C@H](O)[C@H]1O [ouabain],reduction of FC5 transport across HCEC,"HCEC monolayers; ouabain 1 μM, 30 minutes pretreatment",40%
chondroitin sulfate A,effect on FC5 transcytosis across the BBB in vitro,HCEC monolayers; 10 μg/ml pre-incubation,did not affect
chondroitin sulfate C,effect on FC5 transcytosis across the BBB in vitro,HCEC monolayers; 10 μg/ml pre-incubation,did not affect
heparin sulfate,effect on FC5 transcytosis across the BBB in vitro,HCEC monolayers; heparin sulfate 50 U/ml pre-incubation,did not affect
holo-transferrin,effect on FC5 transendothelial transport,"HCEC monolayers; 100-fold excess (1 mg/ml) of holo-transferrin, 10 μg/ml FC5, 30 minutes",not reduced
same,effect on FC5 uptake,HCEC; 100-fold excess of holo-transferrin,not reduced
mannan,effect on FC5 transmigration,HCEC monolayers; mannan 1 mg/ml,did not affect
methyl-β-cyclodextrin,effect on FC5 transmigration across in vitro BBB model,"HCEC monolayers; methyl-β-cyclodextrin 5 mM, 30 minutes pretreatment",None of the caveolae-mediated endocytosis inhibitors tested affected
poly-L-lysine,effect on FC5 transport across the in vitro BBB model,HCEC monolayers; poly-L-lysine 300 μM,Neither compound affected
same,effect on FC5 uptake into HCEC,HCEC; poly-L-lysine 300 μM,Neither compound affected
protamine sulfate,effect on FC5 transport across the in vitro BBB model,HCEC monolayers; protamine sulfate 40 μg/ml,Neither compound affected
same,effect on FC5 uptake into HCEC,HCEC; protamine sulfate 40 μg/ml,Neither compound affected
